# Measured values: patent US6462078B1, “Epoxyvibsanin B” (priority 2001, dated 2002)
# How the values were obtained:
# Assay type in all cases: cell-based, human
# IL-12 production [1] = assay: IL-12 inhibitory assay in PBMC stimulated with IFN-γ and LPS (IL-12 p70 sandwich ELISA)
# Protocol: Mononuclear cells from human peripheral blood (PBMC) were harvested from a leukopak using standard procedures. The cells, diluted to three millions per mL, were maintained in RPMI medium supplemented with fetal calf serum (10%), penicillin (100 U/mL), streptomycin (100 μg/mL) and […] (2 mM). Human interferon gamma (IFN-γ, Boehringer Mannheim; catalog no. 1040596) was diluted to 60 units/mL using the cell-containing supplemented medium. 100 μL of the resulting cell culture was added to each well of a 96-well U-shaped bottom microtiter plate, and incubated overnight in a humidified 37° C., 7% CO2 incubator. Epoxyvibsanin B in 4×RPMI stock medium was added to each well with a final concentration of 1 μg/mL, followed by the addition of lipopolysaccharide (LPS, Serratia […] Sigma; catalog no. L-4766) in 4×RPMI stock medium with a final concentration of 1 μg/mL. The plate was gently vortexed and continuously incubated for 16 hrs. IFN-γ and LPS have stimulated PBMC for IL-12 production. The supernatant from each cell culture was harvested, and the secreted IL-12 p70 in the supernatant was quantitated with a sandwich ELISA using anti-human IL-12 antibodies (R & D systems; catalog no. mAb 611 and catalog no. BAF 219). An epoxyvibsanin B-free control experiment was also perfonned. […] The inhibition of IL-12 production was further tested in parallel experiments using two cell lines: PBMC and the human promonocytic leukemia mononuclear cells (THP-1 cells). As described above, PBMC were added to a 96-well plate with 500,000 cells per well, and stimulated for IL-12 production with IFN-γ (200 U/ml) and LPS (1 μg/ml). In parallel, THP-1 cells were added to a 96-well plate with 800,000 cells per well, and stimulated for IL-12 production with IFN-γ (2000 U/ml) and Staph Aureus Cowan I (0.05%, SAC or Pansorbin; from Calbiochem; lot no. B15921). The supernatant from each cell culture was harvested and analyzed for IL-12 p70 with a sandwich ELISA by using the antibodies indicated above. […]
# IL-12 production [2] = assay: IL-12 inhibitory assay in THP-1 cells stimulated with IFN-γ and SAC (IL-12 p70 sandwich ELISA); settings: THP-1 800,000 cells per well, IFN-γ 2000 U/ml + SAC 0.05%; read-out: IC50, inhibition of IL-12 production
# Protocol: The inhibition of IL-12 production was further tested in parallel experiments using two cell lines: PBMC and the human promonocytic leukemia mononuclear cells (THP-1 cells). As described above, PBMC were added to a 96-well plate with 500,000 cells per well, and stimulated for IL-12 production with IFN-γ (200 U/ml) and LPS (1 μg/ml). In parallel, THP-1 cells were added to a 96-well plate with 800,000 cells per well, and stimulated for IL-12 production with IFN-γ (2000 U/ml) and Staph Aureus Cowan I (0.05%, SAC or Pansorbin; from Calbiochem; lot no. B15921). The supernatant from each cell culture was harvested and analyzed for IL-12 p70 with a sandwich ELISA by using the antibodies indicated above. […] The activity of epoxyvibsanin B in inhibiting IL-12 production is 10-fold that of a known anti-inflammatory compound, dexamethazone.
# PBMC = system: PBMC
# Protocol: (§1) Epoxyvibsanin B was also tested for cytotoxicity using a Cell Titer 96 Aqueous Non-radioactive kit (Promega, order no. G5421). Phenazine methosulfate (Sigma; catalog no. P 5812) was added as an electron donor to a cell culture containing PBMC (500,000 cells per well) and epoxyvibsanin B (final concentration of 1 μg/ml). 3-(4,5-Dimethylthiazole-2-yl)-5-(3-carbomethoxyphenyl)-2-(4-sulphophenyl)-2H-tetrazolium (MTS) was then added. Cells were incubated for 2 hours in a humidified 37° C., 7% CO2 incubator. The supernatant from the cell culture was harvested and its absorbance at 490 nm was recorded. Cell viability was determined based on the level of MTS (which reacted with mitochondria dehydrogenases enzymes in the living cells), as compared to that obtained from an epoxyvibsanin B-free control experiment. Epoxyvibsanin B was further tested for cytotoxicity toward THP-1 cells.
# THP-1 cells = assay: Cytotoxicity assay (MTS) in THP-1 cells
# Protocol: as §1
substance,measurement,setting,value
epoxyvibsanin B,IC50,"IL-12 production [1]; PBMC 500,000 cells per well, IFN-γ 200 U/ml + LPS 1 μg/ml, read-out: IC50, inhibition of IL-12 production",~1 nM
same,"inhibition of IL-12 production, as compared with control","IL-12 production [1]; PBMC, IFN-γ 60 units/mL + LPS 1 μg/mL, compound 1 μg/mL, 16 hrs",90%
same,activity in inhibiting IL-12 production relative to dexamethazone,"IL-12 production [1]; compared with dexamethazone, cell type not specified",10 fold
same,IC50,IL-12 production [2],20 nM
same,CC50,PBMC,5000 nM
same,cytotoxicity compared with dexamethazone,PBMC,lower than that of dexamethazone
same,CC50,THP-1 cells,10000 nM
